In PubChem BioAssay (NCI):
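Interpolation was linear, between the two tested concentrations surrounding the appropriate level; five concentrations were tested over 48 hours in 96-well plates. Here, GI50 denotes the concentration required for 50% inhibition of growth. Definition used: TGI = concentration required for complete inhibition of growth.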

Key:
Assay in all cases: NCI-60 cell line screen, 48 h
OVCAR-8 ovarian = test system: OVCAR-8 ovarian
KM12 colon = test system: KM12 colon
OVCAR-5 ovarian = test system: OVCAR-5 ovarian
A498 renal = test system: A498 renal
CAKI-1 renal = test system: CAKI-1 renal
UO-31 renal = test system: UO-31 renal
HOP-62 NSCLC = test system: HOP-62 NSCLC
SW-620 colon = test system: SW-620 colon
RPMI-8226 leukemia = test system: RPMI-8226 leukemia
NCI-H226 lung = test system: NCI-H226 lung

Row | Compound | TGI (OVCAR-8 ovarian) | TGI (KM12 colon) | TGI (OVCAR-5 ovarian) | TGI (A498 renal) | TGI (CAKI-1 renal) | TGI (UO-31 renal) | TGI (HOP-62 NSCLC) | TGI (SW-620 colon) | TGI (RPMI-8226 leukemia) | TGI (NCI-H226 lung) | GI50 (OVCAR-8 ovarian) | GI50 (KM12 colon) | GI50 (A498 renal) | GI50 (CAKI-1 renal) | GI50 (UO-31 renal) | GI50 (HOP-62 NSCLC) | GI50 (SW-620 colon) | GI50 (RPMI-8226 leukemia) | GI50 (NCI-H226 lung)
1 | Cc1onc(-c2c(F)cccc2Cl)c1C(=O)N[C@@H]1C(=O)N2[C@@H]1SC(C)(C)[C@@H]2C(=O)O | > 100 µM | > 100 µM | > 100 µM | > 100 µM | > 100 µM | 67.4 µM | > 100 µM | > 100 µM | > 100 µM | > 100 µM | – | – | – | – | – | – | – | – | –
2 | Cc1cc(-c2nc3cc(F)ccc3s2)ccc1NC(=O)C(C)N (stereo not drawn) | 8.62 µM | 9.36 µM | 5.52 µM | 7.41 µM | 8.64 µM | 7.05 µM | 8.32 µM | 9.77 µM | 16.9 µM | > 25 µM | – | – | – | – | – | – | – | – | –
3 | COc1cc(NCc2ccc3n2-c2ccccc2OC3)cc(OC)c1OC | > 100 µM | > 100 µM | > 100 µM | 33.8 µM | 74.5 µM | 60 µM | > 100 µM | > 100 µM | 26.9 µM | > 100 µM | – | – | – | – | – | – | – | – | –
4 | CCCC(=O)OCC(O)CO (stereo not drawn) | > 5000 µM | > 5000 µM | 4700 µM | – | > 5000 µM | > 5000 µM | > 5000 µM | > 5000 µM | > 5000 µM | > 5000 µM | – | – | – | – | – | – | – | – | –
5 | ClCC1(CCl)COC1 | > 100 µM | > 100 µM | – | > 100 µM | – | > 100 µM | – | > 100 µM | – | > 100 µM | – | – | – | – | – | – | – | – | –
6 | NC(N)=N/N=C/c1ccc(O)c(C(=O)O)c1 | > 100 µM | > 100 µM | > 100 µM | > 100 µM | > 100 µM | > 100 µM | > 100 µM | > 100 µM | > 100 µM | > 100 µM | – | – | – | – | – | – | – | – | –
7 | O=C(/N=C/c1c(O)c2ccccc2oc1=O)NC1CCCCC1 | > 100 µM | – | > 100 µM | – | – | > 100 µM | > 100 µM | > 100 µM | > 100 µM | > 100 µM | – | – | – | – | – | – | – | – | –
8 | CCOc1ccc2c(c1)NC(=O)C(C1OC(c3ccccc3)=CC1=O)S2 (stereo not drawn) | 55.7 µM | 66.3 µM | 36.5 µM | > 100 µM | > 100 µM | 90.3 µM | > 100 µM | 88.8 µM | 30.5 µM | 67.5 µM | – | – | – | – | – | – | – | – | –
9 | COc1ccc(-n2cc(-c3ccc(OC)c(OC)c3)nc2SCc2ccccc2)cc1Cl | > 100 µM | 68.1 µM | – | > 100 µM | > 100 µM | > 100 µM | > 100 µM | > 100 µM | 20 µM | > 100 µM | 25.9 µM | 21.3 µM | 22.3 µM | 41.7 µM | 15.2 µM | 28.3 µM | 29.9 µM | 4.38 µM | 40.4 µM
10 | C=CCC1=CC2(OC)C(=O)C(OC)(OC)C1C1C(OC)(OC)C(=O)C(OC)=CC12CC=C (stereo not drawn) | > 100 µM | > 100 µM | > 100 µM | > 100 µM | > 100 µM | > 100 µM | > 100 µM | > 100 µM | > 100 µM | – | – | – | – | – | – | – | – | – | –
11 | NC1=NS(=O)(=O)Nc2nc(-c3cccs3)[nH]c21 | > 100 µM | > 100 µM | > 100 µM | > 100 µM | > 100 µM | > 100 µM | > 100 µM | > 100 µM | > 100 µM | – | – | – | – | – | – | – | – | – | –
12 | CCOc1cc(NC(C)=O)ccc1C(=O)NN1C(=O)CSC1c1ccc(O)c(OC)c1 (stereo not drawn) | > 100 µM | > 100 µM | > 100 µM | > 100 µM | > 100 µM | 29.5 µM | > 100 µM | > 100 µM | > 100 µM | > 100 µM | – | – | – | – | – | – | – | – | –
13 | FC(F)(F)C1=NC(=NNc2nnc(-c3ccccc3)c(-c3ccccc3)n2)N=C(C(F)(F)F)C1 | > 100 µM | > 100 µM | > 100 µM | > 100 µM | > 100 µM | 29.1 µM | > 86.7 µM | > 100 µM | > 100 µM | > 100 µM | – | – | – | – | – | – | – | – | –
14 | CO[C@]12C[C@H](CNC(=O)c3cc(Br)c(Br)[nH]3)O[C@H]1NC(=O)N2 | > 100 µM | > 100 µM | > 100 µM | > 100 µM | > 100 µM | > 100 µM | > 100 µM | > 100 µM | > 100 µM | > 100 µM | – | – | – | – | – | – | – | – | –
